Results taken from US20240166703A1, “ANTI-INFLAMMATORY PEPTIDE AND METHOD OF USE THEREOF” (The Regents of the University of California, priority 2021, published 2024).
“Also recorded” adds a separate entry of the source.

Experiments:
[1] = tested on: B- and T-cell proliferation; details: cited from earlier work
mice = details: mouse, in vivo; cited from earlier work
BMDM cells = assay: Quantitation of cytokines in supernatant of cultured BMDM cells (toxicity); assay type: cell-based, C57BL/6J mice; details: 100 μM, 24 hours, without stimulating the cells
Method: With the approval of the UCSD and Veteran Affairs San Diego Institutional Animal Care and Use Committees (IACUC), bone marrow-derived macrophage (BMDM) cells were isolated from 6-8 weeks old C57BL/6J mice (Jackson Laboratory) followed by erythrocyte lysis with ammonium chloride, and then seeded in 12-well plates at a concentration of 1×10^6 cells/mL. Cultured cells were differentiated to macrophages with culture media containing monocyte-colony stimulating factor (M-CSF; 10 ng/mL). After 7 days of differentiation, BMDM cells were treated with TNF-α (10 ng/mL) or LPS ([…]) with or without TAT-NEMO^ActPep, TAT-NEMO^ActPep6G, or MLN120B.
BMDM cels were pre-incubated with or without 100 μM TAT-NEMO^ActPep or MLN120B for 24 hours. Negative control cells were treated with 1×PBS or DMSO at the same concentrations as those present in either TAT-NEMO^ActPep or MLN120B, respectively. IL-1β and TNF-α levels were measured from 20 μL supernatant of cultured BMDM cells using U-PLEX mouse cytokine assay kit (Meso Scale Diagnostics) following the manufacturer's protocol. […] Experiments were performed in triplicate.
Further, the potentially toxic effects of a high concentration (100 μM) dose of NEMO^ActPep were tested on IL-1β production in BMDMs without stimulating the cells. […]

[2] = tested on: NF-κB DNA binding activity in HeLa cells; assay: EMSA of NF-κB DNA binding, nuclear extracts of TNF-α-treated HeLa cells; assay type: cell-based, human; details: increasing concentrations 10-50 μM; TNF-α-treated HeLa cells
Method: (§1) To prepare nuclear and cytoplasmic protein extracts, HeLa, MEF, and RAW 264.7 cells were lysed in buffer containing 4.3 mM Na2HPO4, 1.47 mM KH2PO4 pH 7.4, 137 mM NaCl, 2.7 mM KCl, 1 mM DTT, 0.05% (v/v) NP-40, and 1×protease inhibitor cocktail for 10 minutes on ice and spun at 3,000 rpm at 4° C. for 10 minutes. The supernatant containing the cytoplasmic fraction was quantified by Bio-Rad protein assay to determine the total amount of protein. Pellets were resuspended in nuclear extraction buffer (25 mM Tris-HCl pH 7.5, 420 mM NaCl, 10% glycerol, 0.2 mM EDTA, 1 mM DTT, 0.5 mM PMSF, 1×protease inhibitor cocktail) once and then subjected to three lysis cycles (freeze at −80° C. and thaw at 37° C.). Finally, samples were centrifuged at 13,000 rpm at 4° C. for 20 minutes, and supernatants containing the soluble nuclear fraction were measured by the Bio-Rad protein assay to determine the total amount of protein. Nuclear and cytoplasmic extracts were aliquoted and kept at −80° C.
(§2) HeLa, MEF, RAW 264.7 cells were cultured in Dulbecco's MEM containing 10% fetal bovine […] supplemented with penicillin and streptomycin, at 37° C. in a humidity incubator with 5% CO2. RAW 264.7 cells were seeded and allowed to adhere for 24 hours then treated with NEMO^ActPep or NEMO^ActPep 6G at different concentrations 60 min before the LPS challenge (100 ng/ml). After 2 hours, nuclear and cytoplasmic extracts were collected. HeLa and MEF cells seeded for 24 hours then treated with NEMO^ActPep or NEMO^ActPep 6G at different concentrations 60 min before the TNF-α challenge (10 ng/ml) for 15 minutes and then nuclear and cytoplasmic extracts were collected. MEF cells were treated with NEMO^ActPep or NEMO^ActPep 6G at different concentrations 1 hour before the LTβR challenge (300 ng/ml). After 24 hours whole cell extracts were collected and aliquoted and kept at −80° C. for further experiments.
(§3) Electrophoretic mobility shift assay (EMSA) was performed using recombinant full length NF-κB ReIA homodimer as a positive control as previously described (45). […] The amount of protein in lysates was quantified by Bio-Rad protein assay. EMSA analysis with quantitative densitometry and signal intensity was quantitated using ImageJ software. […]
It is intrigued by the ability of such a small segment (residues 384-389) of human NEMO to mediate interaction with and promote activation loop phosphorylation of IKK2. […] NF-κB activity was measured by EMSA using nuclear extracts and radiolabeled KB DNA from the immunoglobulin kappa light chain gene (Ig-κB) as the probe (FIG. 5A).

[3] = tested on: non-canonical NF-κB signaling (IKK1, p100 processing); assay: Western blot of p100 processing after LTβR engagement (non-canonical NF-κB signaling); assay type: cell-based; details: increasing peptide concentrations; HeLa cells per FIG. 5C legend
Method: as §2
Equivalent amounts of protein from cell extracts was separated by SDS-PAGE and transferred to polyvinylidene fluoride (PVDF) membranes (Millipore, Bedford, MA, USA). The membrane was blocked with 5% bovine serum albumin (BSA) for 1 hour at room temperature and then the membrane was incubated with the primary antibodies overnight at 4° C. […]

[4] = tested on: NF-κB DNA binding in RAW 264.7 murine macrophage cells; assay: EMSA of NF-κB DNA binding, nuclear lysates of LPS-treated RAW 264.7 cells; assay type: cell-based; details: RAW 264.7 cells, 100 ng/mL LPS for 2 hours
Method: as §1
HeLa, MEF, RAW 264.7 cells were cultured in Dulbecco's MEM containing 10% fetal bovine […] supplemented with penicillin and streptomycin, at 37° C. in a humidity incubator with 5% CO2. RAW 264.7 cells were seeded and allowed to adhere for 24 hours then treated with NEMO^ActPep or NEMO^ActPep 6G at different concentrations 60 min before the LPS challenge (100 ng/ml). After 2 hours, nuclear and cytoplasmic extracts were collected. […]
as §3
It was then tested if the observed effect is universal across species and cell types. […] The effect of TAT-NEMO^ActPep on NF-κB DNA binding was also analyzed in MEF cells by EMSA.

[5] = tested on: MAP kinases JNK, Erk2 and p38; assay: Western blot of MAP kinase phosphorylation in TNF-α-treated HeLa cells; assay type: cell-based, human
Method: (§4) Equivalent amounts of protein from cell extracts was separated by SDS-PAGE and transferred to polyvinylidene fluoride (PVDF) membranes (Millipore, Bedford, MA, USA). The membrane was blocked with 5% bovine serum albumin (BSA) for 1 hour at room temperature and then the membrane was incubated with the primary antibodies overnight at 4° C. Antibodies for IKK2, His, HA, Myc, GST, Ubiquitin, IκBα, phospho-IKK2, p65/ReIA, p84, γ-Actin, p100/52, phospho-ERK, phospho-JNK, phospho-p38, ERK, JNK, and p38 were used for detecting multiple specific protein targets. After binding of an appropriate secondary antibody coupled to horseradish peroxidase, the immunoreactive bands were visualized by enhanced chemiluminescence substrate.
It was also tested if TAT-NEMO^ActPep has any effect on non-canonical NF-κB signaling. This alternative NF-κB signaling pathway is activated in response to stimulation of specific cytokine receptors and leads to activation of IKK1 and consequent processing of the p100 precursor to the mature NF-κB subunit p52 (30,31). […] To further investigate the possible involvement of TAT-NEMO^ActPep in other signaling pathways, the effect of the peptide on MAPK activation was tested by monitoring the phosphorylation status of JNK, Erk2, and p38 upon TNF-α treatment of HeLa cells. […]

[6] = tested on: canonical NF-κB signaling through IKK2 in HeLa cells; assay: Western blot of canonical NF-κB signaling in TNF-α-treated HeLa cells; assay type: cell-based, human; details: increasing peptide concentrations
Method: as §1, §2, §4
The inhibitory effects of TAT-NEMO^ActPep were further verified on canonical NF-κB signaling in HeLa cells by assessing IKK2 activation loop phosphorylation, IκBα degradation, and NF-κB ReIA/p65 subunit subcellular localization. Consistent with the observations of decreased nuclear NF-κB DNA binding activity by EMSA, treatment with TAT-NEMO^ActPep blocked IKK2 phosphorylation, IκBα proteolysis, and nuclear translocation of ReIA (FIG. 5B).

[7] = tested on: canonical NF-κB signaling through IKK2 in RAW 264.7 murine macrophage cells; assay: Western blot of canonical NF-κB signaling in LPS-treated RAW 264.7 cells; assay type: cell-based; details: 100 ng/mL LPS for 2 hours
Method: as §1, §2, §4
It was then tested if the observed effect is universal across species and cell types. The effect of TAT-NEMO^ActPep was tested in RAW 264.7 murine macrophage cells treated with 100 ng/mL purified bacterial lipopolysaccharide (LPS) for 2 hours. Again, NF-κB DNA binding and ReIA subunit nuclear localization were both inhibited as were phosphorylation of the IKK2 activation loop and degradation of IκBα. […] The effect of TAT-NEMO^ActPep on NF-κB DNA binding was also analyzed in MEF cells by EMSA.

[8] = molecular target: T1, full length human IKK2 (recombinant, N-terminal hexahistidine-TEV tag) (human, UniProt O14920 1-756); assay: GST pull-down with purified proteins, western blot
T1 construct: mature; Produced in Sf9 insect cells with baculovirus; also called IKKβ; full length IKK2; not shown: TEV cleavage site and vector residues of pFastBacHTb
T1 sequence: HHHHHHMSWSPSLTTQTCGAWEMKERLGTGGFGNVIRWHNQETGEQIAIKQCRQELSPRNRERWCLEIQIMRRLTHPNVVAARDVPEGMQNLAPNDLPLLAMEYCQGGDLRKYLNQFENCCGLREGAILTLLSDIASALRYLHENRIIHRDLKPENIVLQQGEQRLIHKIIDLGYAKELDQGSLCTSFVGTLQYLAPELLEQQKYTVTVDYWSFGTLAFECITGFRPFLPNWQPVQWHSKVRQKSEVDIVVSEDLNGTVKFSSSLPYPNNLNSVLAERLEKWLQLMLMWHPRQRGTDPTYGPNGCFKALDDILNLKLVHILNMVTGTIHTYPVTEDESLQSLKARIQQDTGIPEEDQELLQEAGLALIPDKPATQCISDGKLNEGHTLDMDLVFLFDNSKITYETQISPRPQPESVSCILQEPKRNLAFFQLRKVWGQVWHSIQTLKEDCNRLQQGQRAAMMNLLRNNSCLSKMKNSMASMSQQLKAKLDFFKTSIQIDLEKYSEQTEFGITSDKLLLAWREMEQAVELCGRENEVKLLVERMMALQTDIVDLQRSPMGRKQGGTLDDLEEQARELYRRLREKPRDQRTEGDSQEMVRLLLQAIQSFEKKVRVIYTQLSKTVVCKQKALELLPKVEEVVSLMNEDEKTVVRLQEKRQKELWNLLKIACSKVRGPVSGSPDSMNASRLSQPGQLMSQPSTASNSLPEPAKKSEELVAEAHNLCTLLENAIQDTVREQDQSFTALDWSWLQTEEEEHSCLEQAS

COc1c(Cl)cc2c([nH]c3cnccc32)c1NC(=O)c1cccnc1C [MLN120B]
B- and T-cell proliferation [1]: block B- and T-cell proliferation | neutrophilia in mice (mice): promote neutrophilia | septic shock in mice (mice): cause septic shock | TNF-α expression / basal levels in BMDM supernatant (BMDM cells): reduced basal levels of TNF-α | production of IL-1β in BMDM supernatant (BMDM cells): significantly induced production of mature IL-1β

TAT-NEMO^ActPep 6G: control variant of TAT-NEMO^ActPep with NEMO residues 384-389 mutated to glycine (SEQ ID NO 3) (YGRKKRRQRRRGGLSSPLALPSGGGGGGEE) [reference compound]
NF-κB-dependent shift of radiolabeled probe (EMSA) [2]: reduction was not observed; also recorded: does not | processing of p100 in response to LTβR engagement (western blot) [3]: not observed any effect; also recorded: no change in the extent of p100 processing | NF-κB DNA binding [4]: did not show such effects | phosphorylation of JNK, Erk2 and p38 MAP kinases (western blot) [5]: Neither TAT-NEMO^ActPep nor TAT-NEMO^ActPep 6G influenced; also recorded: no effect | IKK2 activation loop phosphorylation (western blot) [6]: showed no such effects | IκBα degradation / proteolysis (western blot) [6]: showed no such effects | NF-κB ReIA/p65 subunit nuclear localization (western blot) [6]: showed no such effects | ReIA subunit nuclear localization (western blot) [7]: did not show such effects | degradation of IκBα (western blot) [7]: did not show such effects | phosphorylation of the IKK2 activation loop (western blot) [7]: did not show such effects

B1: GST-NEMO^111-419 (other, human, UniProt Q9Y6K9 111-419, looked up)
chain: KLDLKRQKEQALREVEHLKRCQQQMAEDKASVKAQVTSLLGELQESQSRLEAATKECQALEGRARAASEQARQLESEREALQQQHSVQVDQLRMQGQSVEAALRMERQAASEEKRKLAQLQVAYHQLFQEYDNHIKSSVVGSERKRGMQLEDLKQQLQQAEEALVAKQEVIDKLKEEAEQHKIVMETVPVLKAQADIYKADFQAERQAREKLAEKKELLQEQLEQLQREYSKLKASCQESARIEDMRKRHVEVSQAPLPPAPAYLSSPLALPSQRRSPPEEPPDFCCPKCQYQAPDMDTLQIHVMECIE
notes: not shown: glutathione-S-transferase (GST) tag of vector pGEX4T-2, N-terminal
binding result [8]: no binding
